Results: US20240239811A1, “5-(5-(PIPERIDIN-4-YL)THIENO[3,2-C]PYRAZOL-2-YL]INDAZOLE DERIVATIVES AND RELATED COMPOUNDS AS MODULATORS FOR SPLICING NUCLEIC ACIDS AND FOR THE T” (REMIX THERAPEUTICS INC., priority 2020, published 2024)
Structures can show the parent of a compound that is named as a salt.

Tests used:
Assay type in all cases: cell-based
[1] = test system: HTT CJ mRNA; test: Gene panel canonical junction qPCR assay, HTT; settings: Table 6, decrease in CJ mRNA, read-out: HTT IC50 (decrease in CJ mRNA levels)
Procedure: (§1) Compounds described herein were used to modulate RNA transcript abundance in cells. The expression of a target mRNA was measured by detecting the formation of an exon-exon junction in the canonical transcript (CJ). A compound mediated exon-inclusion event was detected by observing an increase in formation of a new junction with an alternative exon (AJ). Real-time qPCR assays were used to detect these splicing switches and interrogate the potency of various compounds towards different target genes. A high-throughput real time quantitative PCR (RT-qPCR) assay was developed to measure these two isoforms of the mRNA (CJ and AJ) for an exemplary gene, HTT, together with a control housekeeping gene, GAPDH or GUSB or PPIA, used for normalization. Briefly, the A673 or K562 cell line was treated with various compounds described herein (e.g., compounds of Formula (I)). After treatment, the levels of the HTT mRNA targets were determined from each sample of cell lysate by cDNA synthesis followed by qPCR.
(§2) The A673 cell line was cultured in DMEM with 10% FBS. Cells were diluted with full growth media and plated in a 96-well plate (15,000 cells in 100ul media per well). The plate was incubated at 37° C. with 5% CO2 for 24 hours to allow cells to adhere. An 11-point 3-fold serial dilution of the compounds was made in DMSO then diluted in media in an intermediate plate. Compounds were transferred from the intermediate plate to the cell plate with the top dose at a final concentration of 10 uM in the well. Final DMSO concentration was kept at or below 0.25%. The cell plate was returned to the incubator at 37° C. with 5% CO2 for an additional 24 hours.
(§3) The K562 cell line was cultured in IMDM with 10% FBS. For K562, cells were diluted with full growth media and plated in either a 96-well plate (50,000 cells in 50 uL media per well) or a 384-well plate (8,000-40,000 cells in 45 uL media per well). An 11-point 3-fold serial dilution of the compounds were made in DMSO then diluted in media in an intermediate plate. Compound was transferred from the intermediate plate to the cell plate with the top dose at a final concentration of 10 uM in the well. Final DMSO concentration was kept at or below 0.25%. Final volume was 100 uL for 96-well plate and 50 uL for 384-well plate. The cell plate was then placed in an incubator at 37° C. with 5% CO2 for 24 hours.
(§4) The data analysis was performed by first determining the ΔCt vs the housekeeper gene. This ΔCt was then normalized against the DMSO control (ΔΔCt) and converted to RQ (relative quantification) using the 2^(−ΔΔCt) equation. The RQ were then converted to a percentage response by arbitrarily setting an assay window of 3.5 ΔCt for HTT-CJ and an assay window of 9 ΔCt for HTT-AJ. […] The percentage response was then fitted to the 4 parametric logistic equation to evaluate the concentration dependence of compound treatment. The increase in AJ mRNA is reported as AC50 (compound concentration having 50% response in AJ increase) while the decrease in CJ mRNA levels is reported as IC50 (compound concentration having 50% response in CJ decrease).
(§5) Additional studies were carried out for a larger panel of genes using the protocol provided above. The junction between flanking upstream and downstream exons was used to design canonical junction qPCR assays. At least one of the forward primer, reverse primer or the CY5-labeled 5′ nuclease probe (with 3′ quencher such as ZEN/Iowa Black FQ) was designed to overlap with the exon junction to capture the CJ mRNA transcript. BLAST was used to confirm the specificity of the probeset and parameters such as melting temperature, GC content, amplicon size, and primer dimer formation are considered during their design. Data for the decrease in CJ mRNA levels for three exemplary genes (HTT, SMN2, and Target C) analyzed in this panel are reported as IC50 (compound concentration having […] in CJ decrease).

[2] = test system: SMN2 CJ mRNA; test: Gene panel canonical junction qPCR assay, SMN2; settings: Table 6, decrease in CJ mRNA, read-out: SMN2 IC50 (decrease in CJ mRNA levels)
Procedure: as §1, §2, §3, §4, §5

[3] = test system: HTT mRNA; test: Splicing assay (RT-qPCR) monitoring HTT splice variants, canonical (CJ) and alternative (AJ) junction; settings: 50% response, A673 or K562 cell line, 24 hours; for IC50: decrease in CJ mRNA; for AC50: increase in AJ mRNA
Procedure: as §1
• Cells-to-CT 1-step kit: ThermoFisher A25602, Cells-to-CT lysis reagent: ThermoFisher 4391851C, TaqMan™ Fast Virus 1-Step Master Mix: ThermoFisher 4444436 • GAPDH: VIC-PL, ThermoFisher 4326317E (Assay: Hs99999905_ml)—used for K562/suspension cell lines • GUSB: VIC-PL, ThermoFisher 4326320E (Assay: Hs99999908_ml)—used for K562/suspension cell lines • PPIA: VIC-PL, ThermoFisher 4326316E (Assay: Hs99999904_ml)—used for A673/adherent cell lines
as §2, §3
The cells were then gently washed with 50 uL-100 uL cold PBS before proceeding to addition of lysis buffer. 30 uL-50 uL of room temperature lysis buffer with DNAse I (and optionally RNAsin) was added to each well. Cells were shaken/mixed thoroughly at room temperature for 5-10 minutes for lysis to take place and then 3 uL-5 uL of room temperature stop solution was added and wells were shaken/mixed again. After 2-5 minutes, the cell lysate plate was transferred to ice for RT-qPCR reaction setup. The lysates could also be frozen at −80° C. for later use.
In some cases, a direct lysis buffer was used. An appropriate volume of 3X lysis buffer (10 mM Tris, 150 mM NaCl, 1.5%-2.5% Igepal and 0.1-1 U/uL RNAsin, pH 7.4) was directly added to either K562 or A673 cells in media and mixed by pipetting 3 times. The plates were then incubated at room temperature with shaking/rocking for 20-50 minutes to allow for lysis to take place. After this time, the cell lysate plate was transferred to ice to set up for the RT-qPCR reactions. The lysates could also be frozen at −80° C. for later use. […]

[4] = test system: Target C CJ mRNA; test: Gene panel canonical junction qPCR assay, Target C; settings: Table 6, decrease in CJ mRNA, read-out: Target C IC50 (decrease in CJ mRNA levels)
Procedure: as §1, §2, §3, §4, §5

Structure (SMILES)	IC50 [1]	IC50 [2]	IC50 [3]	AC50 [3]	IC50 [4]
Cn1cc2cc(-c3nc4sc(N5CCC56CCNC6)cc4s3)cc(F)c2n1 (stereo not drawn) [Compound 200, 5-(5-{1,6-diazaspiro[3.4]octan-1-yl}thieno[2,3-d][1,3]thiazol-2-yl)-7-fluoro-2-methy-lindazole]	> 10 µM	1 to 10 µM	> 10 µM	> 10 µM	> 10 µM
Cc1cn2cc(-n3cc4cc(C5CCNCC5)sc4n3)ncc2n1 [Compound 158]	0.1 to 1 µM	0.1 to 1 µM	0.1 to 1 µM	0.1 to 1 µM	0.1 to 1 µM
CN1CCC(c2cc3sc(-c4cc(F)c5nn(C)cc5c4)nc3s2)CC1 [Compound 151, 7-fluoro-2-methyl-5-[5-(1-methylpiperidin-4-yl)thieno[2,3-d][1,3]thiazol-2-yl]indazole]	< 0.1 µM	< 0.1 µM	< 0.1 µM	< 0.1 µM	< 0.1 µM
Cn1cc2cc(-c3cc4cn(C5CCOCC5)nc4s3)cc(F)c2n1 [Compound 161, 7-fluoro-2-methyl-5-[2-(oxan-4-yl)thieno[2,3-c]pyrazol-5-yl] indazole]	> 10 µM	> 10 µM	> 10 µM	> 10 µM	> 10 µM
Cn1cc2cc(-c3nc4sc(N5CCN6CCCC6C5)cc4s3)cc(F)c2n1 (stereo not drawn) [Compound 144, 7-fluoro-5-(5-[hexahydro-1H-pyrrolo[1,2-a]pyrazin-2-yl]thieno[2,3-d][1,3]thiazol-2-yl)-2-methylindazole]	1 to 10 µM	< 0.1 µM	1 to 10 µM	0.1 to 1 µM	> 10 µM
CCN1CCC(n2cc3cc(-c4cc(F)c5nn(C)cc5c4)sc3n2)CC1 [Compound 149, 5-[2-(1-ethylpiperidin-4-yl)thieno[2,3-c]pyrazol-5-yl]-7-fluoro-2-methylindazole]	< 0.1 µM	< 0.1 µM	< 0.1 µM	< 0.1 µM	0.1 to 1 µM
Cn1cc2cc(-c3cc4sc(C5CCNCC5)nc4s3)cc(F)c2n1 [Compound 124, 7-fluoro-2-methyl-5-[2-(piperidin-4-yl)thieno[2,3-d][1,3]thiazol-5-yl]indazole]	0.1 to 1 µM	< 0.1 µM	0.1 to 1 µM	< 0.1 µM	0.1 to 1 µM
Cc1cn2nc(-c3nc4sc(C5CCNC5)cc4s3)cc(C)c2n1 (stereo not drawn) [Compound 197, 3-(2-{2,8-dimethylimidazo[1,2-b]pyridazin-6-yl}thieno [2,3-d][1,3]thiazol-5-yl)pyrrolidine]	0.1 to 1 µM	0.1 to 1 µM	0.1 to 1 µM	0.1 to 1 µM	1 to 10 µM
Cc1cn2cc(-c3cc4cn(C5CCNCC5)nc4s3)ncc2n1 [Compound 223]	1 to 10 µM	0.1 to 1 µM	1 to 10 µM	1 to 10 µM	1 to 10 µM
CC1CN(c2cc3sc(-c4cc(F)c5nn(C)cc5c4)nc3s2)CCN1 (stereo not drawn) [Compound 135, 7-fluoro-2-methyl-5-[5-(3-methylpiperazin-1-yl)thieno[2,3-d][1,3]thiazol-2-yl]indazole]	0.1 to 1 µM	< 0.1 µM	0.1 to 1 µM	0.1 to 1 µM	0.1 to 1 µM
Cn1cc2cc(-c3cc4cn([C@H]5CCNC[C@H]5F)nc4s3)cc(F)c2n1 (stereo in doubt) [Compound 182]	< 0.1 µM	< 0.1 µM	< 0.1 µM	0.1 to 1 µM	0.1 to 1 µM
COc1c(-c2cc3cn(C4CCNCC4)nc3s2)cc(F)c2nn(C)cc12 [Compound 224]	> 10 µM	> 10 µM	> 10 µM	> 10 µM	> 10 µM
Cc1cn2nc(-c3nc4sc(C5CCOCC5)cc4s3)cc(C)c2n1 [Compound 196, 2,8-dimethyl-6-[5-(oxan-4-yl)thieno[2,3-d][1,3]thiazol-2-yl]imidazo[1,2-b]pyridazine]	1 to 10 µM	1 to 10 µM	1 to 10 µM	1 to 10 µM	1 to 10 µM
Cn1cc2cc(-c3cc4cn([C@@H]5CCNC5)nc4s3)cc(F)c2n1 [Compound 160, (R)-5-(7-fluoro-2-methyl-2H-indazol-5-yl)-2-(pyrrolidin-3-yl)-2H-thieno[2,3-c]pyrazole hydrochloride]	1 to 10 µM	0.1 to 1 µM	1 to 10 µM	1 to 10 µM	> 10 µM
Cc1cn2nc(-c3cc4cn([C@H]5CCNC[C@@H]5F)nc4s3)cc(C)c2n1 (mixture of isomers) [Compound 212, 5-(2,8-dimethylimidazo[1,2-b]pyridazin-6-yl)-2-((1:1 mixture of 3S,4S and 3R,4R)-3-fluoropiperidin-4-yl)-2H-thieno[2,3-c]pyrazole]	1 to 10 µM	0.1 to 1 µM	1 to 10 µM	1 to 10 µM	> 10 µM
